Results reported in PMC5947712, “High‐Throughput Kinetic Analysis for Target‐Directed Covalent Ligand Discovery” (Angewandte Chemie (International Ed. in English), 2018).
Several values for one entry are separate records, joined by “and”; a condition that tells them apart may be missing. Identical values can stand only once.

What was measured:
[1] = target: T1, Cdk2:cyclin A2 (Homo sapiens, UniProt P24941); test: In vitro kinase activity after 24 h incubation of active Cdk2:cyclin A2 with acrylamides; assay type: biochemical; settings: 0.5 mM, n=3, read-out: % inhibition ± SEM Cdk2
T1 construct: GST (N, cleaved yes); made in house; host or cells: E. coli Tuner(DE3)
Method: Figure 6 a) Sequence alignment of Cdk family. Cys177 is highlighted in yellow. b) Published selectivity profiles of selected Cdk2 inhibitors.29 c) Active Cdk1/Cdk2:cyclin A2 was incubated with acrylamides 1 and 2 (0.5 mM) for 24 hours and then their in vitro kinase activity was measured (n=3). […]
Tables! 2R6.! Molecular! replacement! was! conducted! on! all! data! sets! using!Phaser[14]/MOLREP[15]!against! apoRCdk2! (PDB:!
4EK3)!and!the! model! was! iteratively! refined! using! Phenix.Refine[16]!with! manual! modelling! and! adjustments! carried! out! in!
COOT[17].! Descriptions! of! the! ligands! and! links! were! generated! with! JLigand[18]!and! refined! with! Refmac[19].! Electron! density! […]
Cdk2! (1! mg)! was! sequentially! incubated! with! aliquots! of! CAK1! (3!×!0.05! mg)! at! r.t.! for! […]
Phosphorylation! of! […] Cdk2! during! gel! electrophoresis! and! the! reaction! was! monitored! by! […]
initiated!by!addition!of!0.5!mM!ATP!and!0.24!mM!substrate!peptide!([…])!and!the!absorbance!at!340!nm!was!moniR […]
plate! reader! […]
was!measured!from!the!gradient!during!the!linear!phase!of!product!accumulation.!! […]
ments,! the! wavelength! was! adjusted! to! 230! nm! and! elipticity! was! measured! at! […]
repeats!of!10!s!integrations!per!temperature.!The!meltRtemperature!(Tm)!was!determined!using!Prism!6.0!by!fitting!a!sigmoidal! […]
The! cell! lysates! were!diluted! to! […] RIPA! lysis! buffer,! as! quantified! by! the! […]

[2] = target: Cdk2(WT) (Homo sapiens, UniProt P24941); test: qIT thiol consumption assay with Cdk2(WT) (Cys177); assay type: binding; parameters: made in house; host or cells: E. coli Tuner(DE3); settings: for k Cdk2(WT) (pseudo-first-order rate constant): compound 0.5 mM, Cdk2(WT) 5 μM, TCEP-agarose 2 % w/v

inhibition at 500 µM [1] [%]	k Cdk2(WT) (pseudo-first-order rate constant) [2] [h⁻¹]	REF Cdk2(WT) (rate enhancement factor = k protein/k GSH) [2]	SMILES
83 ± 3	0.204	5.0	C=CC(=O)N1CCN(C(=O)OC(C)(C)C)c2ccccc21 [Acrylamide 1]
5 ± 6	0.233	2.6 and 2.63	C=CC(=O)N1CCN(C(=O)OC)c2ccccc21 [Acrylamide 2]
